Assay results taken from ChEMBL document CHEMBL3608270, “Advances in tetrahydropyrido[1,2-a]isoindolone (valmerins) series: Potent glycogen synthase kinase 3 and cyclin dependent kinase 5 inhibitors” (Eur J Med Chem, 2015).

Tests used:
[1] = target: Glycogen synthase kinase-3 (Sus scrofa, UniProt B2LUN4+I6LNT8); experiment: Inhibition of porcine brain GSK3alpha/beta using GS-1 substrate and ATP
[2] = Selectivity index, ratio of IC50 for human recombinant CDK5/p25 to porcine brain GSK3alpha/beta
[3] = target: Cyclin-dependent kinase 5/CDK5 activator 1 (Homo sapiens, UniProt Q00535); experiment: Inhibition of human recombinant CDK5/p25 using histone H1 substrate and ATP; assay type: protein-complex assay
cells = details: Homo sapiens, Huh-7, 48 h
Caco-2 [4] = experiment: cells; details: Homo sapiens, Caco-2, 48 h
MDA-MB-231 [5] = experiment: cells; details: Homo sapiens, MDA-MB-231, 48 h
HCT-116 [6] = experiment: cells; details: Homo sapiens, HCT-116, 48 h
PC-3 [7] = experiment: cells; details: Homo sapiens, PC-3, 48 h
NCI-H727 [8] = experiment: cells; details: Homo sapiens, NCI-H727, 48 h
Caco-2 [9] = tested on: Caco-2
MDA-MB-231 [10] = tested on: MDA-MB-231
HCT-116 [11] = tested on: HCT-116
PC-3 [12] = tested on: PC-3
NCI-H727 [13] = tested on: NCI-H727
[14] = target: Dual specificity tyrosine-phosphorylation-regulated kinase 1A (Homo sapiens, UniProt Q13627); experiment: Inhibition of human recombinant GST-tagged DYRK1A expressed in Escherichia coli

Sequence of Cyclin-dependent kinase 5/CDK5 activator 1 (Q00535 whole entry): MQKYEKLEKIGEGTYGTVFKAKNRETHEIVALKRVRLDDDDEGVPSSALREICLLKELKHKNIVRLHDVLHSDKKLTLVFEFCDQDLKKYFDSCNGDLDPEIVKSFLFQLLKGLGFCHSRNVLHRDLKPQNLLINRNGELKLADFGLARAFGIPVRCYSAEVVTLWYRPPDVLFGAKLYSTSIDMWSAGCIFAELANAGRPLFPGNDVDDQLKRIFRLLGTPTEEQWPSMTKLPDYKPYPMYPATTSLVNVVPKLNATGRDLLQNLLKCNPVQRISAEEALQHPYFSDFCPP
Sequence of Cyclin-dependent kinase 5/CDK5 activator 1 (Q15078 whole entry, further chain): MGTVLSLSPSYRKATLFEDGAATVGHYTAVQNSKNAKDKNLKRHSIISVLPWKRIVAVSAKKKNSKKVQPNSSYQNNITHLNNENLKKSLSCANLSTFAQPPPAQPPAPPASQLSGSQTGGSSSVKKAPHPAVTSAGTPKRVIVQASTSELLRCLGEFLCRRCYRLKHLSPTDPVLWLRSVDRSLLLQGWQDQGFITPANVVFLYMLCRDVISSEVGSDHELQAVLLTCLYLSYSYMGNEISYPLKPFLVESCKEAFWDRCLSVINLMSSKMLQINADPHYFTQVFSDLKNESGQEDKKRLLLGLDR

Row | IC50 [1] [nM] | Ratio IC50 [2] | IC50 [3] [nM] | IC50 [14] [nM] | Compound | other results
1 | 33 | 7.2 |  |  | O=C(Nc1ccccn1)Nc1cccc2c1C1CC3(CCN1C2=O)SCCS3 (configuration not stated) | 
2 | 230 |  | 1600 |  | O=C1CCN2C(=O)c3cccc(NC(=O)Nc4ccccn4)c3C2C1 (configuration not stated) | 
3 |  |  | 2100 |  | O=C(Nc1ccccn1)Nc1cccc2c1[C@@H]1C[C@H](O)CCN1C2=O | 
4 | 44 |  |  |  | O=C(Nc1cnccn1)Nc1cccc2c1C1CC3(CCN1C2=O)SCCS3 (configuration not stated) | IC50 (cells): 100 nM; IC50 (Caco-2 [4]): 500 nM; IC50 (MDA-MB-231 [5]): 150 nM; IC50 (HCT-116 [6]): 100 nM; IC50 (PC-3 [7]): 600 nM; IC50 (NCI-H727 [8]): 400 nM
5 | 1200 |  | 3600 |  | O=C1CCN2C(=O)c3cccc(NC(=O)Nc4cnccn4)c3C2C1 (configuration not stated) | 
6 | 920 | > 10 |  |  | Cc1cccc(NC(=O)Nc2cccc3c2C2CC4(CCN2C3=O)OCCO4)n1 (configuration not stated) | 
7 | 2000 | > 5 |  |  | Cc1cccc(NC(=O)Nc2cccc3c2C2CC4(CCN2C3=O)SCCS4)n1 (configuration not stated) | 
8 |  |  | 1000 |  | Cc1cccc(NC(=O)Nc2cccc3c2[C@@H]2C[C@H](O)CCN2C3=O)n1 | IC50 (Caco-2 [9]): Not Active; IC50 (MDA-MB-231 [10]): Not Active; IC50 (HCT-116 [11]): Not Active; IC50 (PC-3 [12]): Not Active; IC50 (NCI-H727 [13]): Not Active
9 | 1000 | > 10 |  |  | COc1cc(NC(=O)Nc2cccc3c2C2CC4(CCN2C3=O)OCCO4)nc2ccccc12 (configuration not stated) | 
10 | 4000 | > 2.5 |  |  | COc1cc(NC(=O)Nc2cccc3c2C2CC4(CCN2C3=O)SCCS4)nc2ccccc12 (configuration not stated) | 
11 | 610 | 5 |  |  | Cc1cccnc1NC(=O)Nc1cccc2c1C1CC3(CCN1C2=O)OCCO3 (configuration not stated) | 
12 | 1900 | > 5.2 |  |  | Cn1ccc(NC(=O)Nc2cccc3c2C2CC4(CCN2C3=O)SCCS4)n1 (configuration not stated) | 
13 | 55 |  |  |  | Cc1cnc(NC(=O)Nc2cccc3c2C2CC4(CCN2C3=O)SCCS4)cn1 (configuration not stated) | IC50 (cells): 300 nM; IC50 (Caco-2 [4]): 500 nM; IC50 (MDA-MB-231 [5]): 400 nM; IC50 (HCT-116 [6]): 200 nM; IC50 (PC-3 [7]): 400 nM; IC50 (NCI-H727 [8]): 800 nM
14 | 68 | 107 |  |  | O=C(Nc1ccc(Br)cn1)Nc1cccc2c1C1CC3(CCN1C2=O)SCCS3 (configuration not stated) | 
15 | 81 | 6.8 | 550 | > 10000 | CO[C@@H]1CCN2C(=O)c3cccc(NC(=O)Nc4ccccn4)c3[C@@H]2C1 (relative stereo) | 
16 | 200 | 2.4 | 480 | > 10000 | CO[C@@H]1CCN2C(=O)c3cccc(NC(=O)Nc4cnccn4)c3[C@@H]2C1 (relative stereo) | 
17 | 32 |  | 84 | > 10000 | O=C(Nc1cnccn1)Nc1cccc2c1[C@@H]1C[C@H](O)CCN1C2=O (relative stereo) | IC50 (Caco-2 [9]): Not Active; IC50 (MDA-MB-231 [10]): Not Active; IC50 (HCT-116 [11]): Not Active; IC50 (PC-3 [12]): Not Active; IC50 (NCI-H727 [13]): Not Active
18 | 320 | 13.4 | 4300 | > 10000 | CO[C@@H]1CCN2C(=O)c3cccc(NC(=O)Nc4cccc(C)n4)c3[C@@H]2C1 (relative stereo) | 
19 | 180 | 47.5 | 8500 | > 10000 | COc1cc(NC(=O)Nc2cccc3c2[C@@H]2C[C@H](OC)CCN2C3=O)nc2ccccc12 (relative stereo) | 
20 | 35 |  | 4900 | > 10000 | COc1cc(NC(=O)Nc2cccc3c2[C@@H]2C[C@H](O)CCN2C3=O)nc2ccccc12 (relative stereo) | IC50 (Caco-2 [9]): Not Active; IC50 (MDA-MB-231 [10]): Not Active; IC50 (HCT-116 [11]): Not Active; IC50 (PC-3 [12]): Not Active; IC50 (NCI-H727 [13]): Not Active
21 |  |  | 1100 | > 10000 | CO[C@@H]1CCN2C(=O)c3cccc(NC(=O)Nc4ncccc4C)c3[C@@H]2C1 (relative stereo) | 
22 |  |  | 630 |  | Cc1cccnc1NC(=O)Nc1cccc2c1[C@@H]1C[C@H](O)CCN1C2=O (relative stereo) | 
23 |  |  | 2300 | > 10000 | CO[C@@H]1CCN2C(=O)c3cccc(NC(=O)Nc4ccn(C)n4)c3[C@@H]2C1 (relative stereo) | 
24 | 140 | 10 | 320 | > 10000 | CO[C@@H]1CCN2C(=O)c3cccc(NC(=O)Nc4cnc(C)cn4)c3[C@@H]2C1 (relative stereo) | 
25 | 32 | 10 | 320 | > 10000 | CO[C@@H]1CCN2C(=O)c3cccc(NC(=O)Nc4cc(C)ccn4)c3[C@@H]2C1 (relative stereo) | IC50 (cells): 100 nM; IC50 (Caco-2 [4]): 500 nM; IC50 (MDA-MB-231 [5]): 300 nM; IC50 (HCT-116 [6]): 30 nM; IC50 (PC-3 [7]): 400 nM; IC50 (NCI-H727 [8]): 400 nM
